Values quoted from earlier work in patent publication US7670620B2, “Topical composition for the treatment of psoriasis and related skin disorders” (Bioderm, Inc., priority 2000, dated 2010).

Tested on: fibroblasts
Conditions: in vitro; Karzel and Domenjoz 1971

| SMILES | Secretion of mucopolysaccharides by fibroblasts |
| --- | --- |
| CC(=O)N[C@H]1C(O)O[C@H](CO)[C@H](O)[C@@H]1O (stereo partly drawn) [N-acetylgalactosamine] | also worked, but to a lesser degree |
| CC(=O)N[C@H]1C(O)O[C@H](CO)[C@@H](O)[C@@H]1O (stereo partly drawn) [N-acetylglucosamine] | also worked, but to a lesser degree |
| N[C@H]1C(O)O[C@H](CO)[C@@H](O)[C@@H]1O (stereo partly drawn) [glucosamine] | significantly increases secretion of mucopolysaccharides by fibroblasts |
